Data published in the supplement of paper PMC10307832.

Key:
Assay in all cases: relative viability (nuclei count vs DMSO), 5 days (fraction); higher = more cells survive
HCC-44 = tested on: HCC-44
How it was run: (§1)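 Each reported value is a median over duplicate plates. It expresses relative viability: treated-well nuclei count divided by vehicle-well nuclei count. Lung cancer cell lines in 1536-well plates were dosed by pin tool a day after seeding, alone with one drug or with a fixed anchor-drug dose plus five library-drug doses (not always all listed) in √10 steps, and nuclei were counted after 5 days.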

NCI-H1975 = tested on: NCI-H1975
How it was run: as §1

LOU-NH91 = tested on: LOU-NH91
How it was run: as §1

NCI-H1755 = tested on: NCI-H1755
How it was run: as §1

LU99A = tested on: LU99A
How it was run: as §1

NCI-H460 = tested on: NCI-H460
How it was run: as §1

NCI-H1563 = tested on: NCI-H1563
How it was run: as §1

NCI-H1437 = tested on: NCI-H1437
How it was run: as §1

HCC-366 = tested on: HCC-366
How it was run: as §1

BEN = tested on: BEN
How it was run: as §1

NCI-H1734 = tested on: NCI-H1734
How it was run: as §1

NCI-H441 = tested on: NCI-H441
How it was run: as §1

NCI-H358 = tested on: NCI-H358
How it was run: as §1

NCI-H838 = tested on: NCI-H838
How it was run: as §1

NCI-H2023 = tested on: NCI-H2023
How it was run: as §1

NCI-H1651 = tested on: NCI-H1651
How it was run: as §1

EKVX = tested on: EKVX
How it was run: as §1

CAL-12T = tested on: CAL-12T
How it was run: as §1

NCI-H2085 = tested on: NCI-H2085
How it was run: as §1

NCI-H1355 = tested on: NCI-H1355
How it was run: as §1

NCI-H1650 = tested on: NCI-H1650
How it was run: as §1

Work on `NC(=O)Nc1cc(-c2cccc(F)c2)sc1C(=O)N[C@H]1CCCNC1` [AZD7762] + C[C@@H](Oc1cc(-c2cnn(C3CCNCC3)c2)cnc1N)c1c(Cl)ccc(F)c1Cl [Crizotinib] (partner 1 µM) yielded a relative viability (HCC-44; first compound 0.01 µM) of 0.892, a relative viability (HCC-44; first compound 0.03162 µM) of 0.808 and a relative viability (HCC-44; first compound 0.1 µM) of 0.854. It also gave a relative viability (HCC-44; first compound 0.3162 µM) of 0.787, a relative viability (HCC-44; first compound 1 µM) of 0.745 and a relative viability (NCI-H1975; first compound 0.01 µM) of 1.06. The relative viability (NCI-H1975; first compound 0.03162 µM) was 0.937, the relative viability (NCI-H1975; first compound 0.1 µM) was 0.837 and the relative viability (NCI-H1975; first compound 0.3162 µM) was 0.903. It also gave a relative viability (NCI-H1975; first compound 1 µM) of 0.638, a relative viability (LOU-NH91; first compound 0.01 µM) of 0.764 and a relative viability (LOU-NH91; first compound 0.03162 µM) of 0.731. The relative viability (LOU-NH91; first compound 0.1 µM) was 0.746, the relative viability (LOU-NH91; first compound 0.3162 µM) was 0.76 and the relative viability (LOU-NH91; first compound 1 µM) was 0.546. It also gave a relative viability (NCI-H1755; first compound 0.01 µM) of 0.901, a relative viability (NCI-H1755; first compound 0.03162 µM) of 0.872 and a relative viability (NCI-H1755; first compound 0.1 µM) of 0.929. It also gave a relative viability (NCI-H1755; first compound 0.3162 µM) of 0.853, a relative viability (NCI-H1755; first compound 1 µM) of 0.508 and a relative viability (LU99A; first compound 0.01 µM) of 0.725. It also gave a relative viability (LU99A; first compound 0.03162 µM) of 0.67, a relative viability (LU99A; first compound 0.1 µM) of 0.602 and a relative viability (LU99A; first compound 0.3162 µM) of 0.587. It also gave a relative viability (LU99A; first compound 1 µM) of 0.228, a relative viability (NCI-H460; first compound 0.01 µM) of 1.13 and a relative viability (NCI-H460; first compound 0.03162 µM) of 0.879. It also gave a relative viability (NCI-H460; first compound 0.1 µM) of 0.758, a relative viability (NCI-H460; first compound 0.3162 µM) of 0.593 and a relative viability (NCI-H460; first compound 1 µM) of 0.0457. It also gave a relative viability (NCI-H1563; first compound 0.01 µM) of 0.957, a relative viability (NCI-H1563; first compound 0.03162 µM) of 0.833 and a relative viability (NCI-H1563; first compound 0.1 µM) of 0.872. The relative viability (NCI-H1563; first compound 0.3162 µM) was 0.889, the relative viability (NCI-H1563; first compound 1 µM) was 0.741 and the relative viability (NCI-H1437; first compound 0.01 µM) was 0.955. It also gave a relative viability (NCI-H1437; first compound 0.03162 µM) of 0.787, a relative viability (NCI-H1437; first compound 0.1 µM) of 1.01 and a relative viability (NCI-H1437; first compound 0.3162 µM) of 0.869. For the same compound, the relative viability (NCI-H1437; first compound 1 µM) was 1.02, the relative viability (HCC-366; first compound 0.01 µM) was 0.678 and the relative viability (HCC-366; first compound 0.03162 µM) was 0.478. It also gave a relative viability (HCC-366; first compound 0.1 µM) of 0.542, a relative viability (HCC-366; first compound 0.3162 µM) of 0.323 and a relative viability (HCC-366; first compound 1 µM) of 0.0525. For the same compound, the relative viability (BEN; first compound 0.01 µM) was 0.911, the relative viability (BEN; first compound 0.03162 µM) was 0.924 and the relative viability (BEN; first compound 0.1 µM) was 0.827. The relative viability (BEN; first compound 0.3162 µM) was 0.859, the relative viability (BEN; first compound 1 µM) was 0.616 and the relative viability (NCI-H1734; first compound 0.01 µM) was 0.837. The relative viability (NCI-H1734; first compound 0.03162 µM) was 0.676, the relative viability (NCI-H1734; first compound 0.1 µM) was 0.869 and the relative viability (NCI-H1734; first compound 0.3162 µM) was 0.612. For the same compound, the relative viability (NCI-H1734; first compound 1 µM) was 0.458, the relative viability (NCI-H441; first compound 0.01 µM) was 1.15 and the relative viability (NCI-H441; first compound 0.03162 µM) was 0.745. For the same compound, the relative viability (NCI-H441; first compound 0.1 µM) was 1.15, the relative viability (NCI-H441; first compound 0.3162 µM) was 0.995 and the relative viability (NCI-H441; first compound 1 µM) was 0.89. For the same compound, the relative viability (NCI-H358; first compound 0.01 µM) was 0.743, the relative viability (NCI-H358; first compound 0.03162 µM) was 0.695 and the relative viability (NCI-H358; first compound 0.1 µM) was 0.581. For the same compound, the relative viability (NCI-H358; first compound 0.3162 µM) was 0.521, the relative viability (NCI-H358; first compound 1 µM) was 0.202 and the relative viability (NCI-H838; first compound 0.01 µM) was 0.809. It also gave a relative viability (NCI-H838; first compound 0.03162 µM) of 0.781, a relative viability (NCI-H838; first compound 0.1 µM) of 0.762 and a relative viability (NCI-H838; first compound 0.3162 µM) of 0.687. For the same compound, the relative viability (NCI-H838; first compound 1 µM) was 0.301, the relative viability (NCI-H2023; first compound 0.01 µM) was 0.573 and the relative viability (NCI-H2023; first compound 0.03162 µM) was 0.612. The relative viability (NCI-H2023; first compound 0.1 µM) was 0.417, the relative viability (NCI-H2023; first compound 0.3162 µM) was 0.209 and the relative viability (NCI-H2023; first compound 1 µM) was 0.118. It also gave a relative viability (NCI-H1651; first compound 0.01 µM) of 1, a relative viability (NCI-H1651; first compound 0.03162 µM) of 0.87 and a relative viability (NCI-H1651; first compound 0.1 µM) of 0.894. The relative viability (NCI-H1651; first compound 0.3162 µM) was 0.862, the relative viability (NCI-H1651; first compound 1 µM) was 0.714 and the relative viability (EKVX; first compound 0.01 µM) was 0.875. It also gave a relative viability (EKVX; first compound 0.03162 µM) of 1.03, a relative viability (EKVX; first compound 0.1 µM) of 0.874 and a relative viability (EKVX; first compound 0.3162 µM) of 0.798. It also gave a relative viability (EKVX; first compound 1 µM) of 0.412, a relative viability (CAL-12T; first compound 0.01 µM) of 0.735 and a relative viability (CAL-12T; first compound 0.03162 µM) of 0.554. The relative viability (CAL-12T; first compound 0.1 µM) was 0.486, the relative viability (CAL-12T; first compound 0.3162 µM) was 0.33 and the relative viability (CAL-12T; first compound 1 µM) was 0.105. It also gave a relative viability (NCI-H2085; first compound 0.01 µM) of 1.01, a relative viability (NCI-H2085; first compound 0.03162 µM) of 0.889 and a relative viability (NCI-H2085; first compound 0.1 µM) of 0.839. The relative viability (NCI-H2085; first compound 0.3162 µM) was 0.853, the relative viability (NCI-H2085; first compound 1 µM) was 0.644 and the relative viability (NCI-H1355; first compound 0.01 µM) was 1.02. For the same compound, the relative viability (NCI-H1355; first compound 0.03162 µM) was 1.02, the relative viability (NCI-H1355; first compound 0.1 µM) was 1.01 and the relative viability (NCI-H1355; first compound 0.3162 µM) was 1.14. The relative viability (NCI-H1355; first compound 1 µM) was 1.03, the relative viability (NCI-H1650; first compound 0.01 µM) was 1.18 and the relative viability (NCI-H1650; first compound 0.03162 µM) was 1.03. The relative viability (NCI-H1650; first compound 0.1 µM) was 0.864, the relative viability (NCI-H1650; first compound 0.3162 µM) was 0.603 and the relative viability (NCI-H1650; first compound 1 µM) was 0.207.
